What was measured:
[1] = test system: mouse B16 melanocytes; assay: Inhibition of melanin production by NDP-MSH-stimulated B16 melanocytes (melanin assay, absorbance at 405 nm); type: cell-based; details: for inhibition of pigmentation (melanin production): Example 3, FIG. 3, B16 + NDP-MSH, extract 0.035%, hexylresorcinol 5 μg/mL, alone or combined, kojic acid and vitamin C positive controls; for efficacy as positive control for pigmentation inhibition (melanin production): Example 2, FIGS. 1 and 2, B16 + 0.1 μM NDP-MSH, 72 h, kojic acid 3 mM, vitamin C (ascorbyl glucoside) 0.5%, ***p<0.001, ****p<0.0001
Method: All the conditions were tested in triplicate.
For the melanin assay, the medium in each well was aspirated and the cells lyzed by adding 50 μl of 1M NaOH to the cell lawn. The plates were shaken for 30 minutes at room temperature, and the lyzate was then transferred to glass flasks and incubated overnight at 95° C. After incubation, the lyzates were centrifuged at 2000 rpm to remove the cell debris. The absorbance of the supernatant was read at 405 nm, reflecting the amount of melanin in each well, and the average of the three replicates was determined for each condition. A well of cells not treated with NDP-MSH was used as a control, and its OD value subtracted from all the OD values of the other wells. The percentage of melanin inhibition was then calculated according to the formula:
100−((melanin amount in test condition/melanin amount in untreated control)×100)
The significance of the results was evaluated using a one-way Anova test (for the distillation residue extract and the oily extract of flowering tops) or Student's t test (for kojic acid and vitamin C).
The results were compared with the effect obtained with the extract according to the invention alone and hexylresorcinol alone, used at the same doses.

[2] = test system: mouse B16 melanocytes; details: Example 3, preliminary cytotoxicity study on the cells
Method: Melanocytes (mouse line B16) were seeded in 96-well plates at 2000 cells per well in phenol red-free DMEM medium containing 10% fetal calf serum, 2 mM glutamine, 1 mM sodium pyruvate and 100 μg/ml normocin. The following day, the cells were treated with 0.1 μM of NDP-MSH to induce pigmentation. Under the test conditions, in the presence of NDP-MSH, kojic acid at 3 mM and vitamin C (ascorbyl glucoside) at 0.5% were used as positive controls for pigmentation inhibition, and the extracts to be evaluated were tested at several concentrations. All the conditions were tested in triplicate. The cells were incubated at 37° C., 5% CO2 for 72 h in the presence of the extracts and positive controls.

CCCCCCc1ccc(O)cc1O [hexylresorcinol, 4-hexyl-1,3-phenylenediol]
inhibition of pigmentation (melanin production) [1]: confirms the depigmenting efficacy | maximum non-cytotoxic dose [2]: 10 µg/mL

O=c1cc(CO)occ1O [kojic acid]
efficacy as positive control for pigmentation inhibition (melanin production) [1]: demonstrating the efficacy | inhibition of pigmentation (melanin production) [1]: demonstrating the efficacy

O=C1O[C@H]([C@@H](O)CO)C(O)=C1O[C@H]1O[C@H](CO)[C@@H](O)[C@H](O)[C@H]1O [vitamin C, ascorbyl glucoside]
efficacy as positive control for pigmentation inhibition (melanin production) [1]: demonstrating the efficacy | inhibition of pigmentation (melanin production) [1]: demonstrating the efficacy

Source: US20240277603A1, “COSMETIC USE OF AN OILY EXTRACT FROM DISTILLATION RESIDUE OF IMMORTELLE AS A SKIN BRIGHTENING AGENT” (LABORATOIRES M&L, priority 2021, published 2024)
